Source: ChEMBL document CHEMBL2074167, “Sterol transport by the human breast cancer resistance protein (ABCG2) expressed in Lactococcus lactis” (J Biol Chem, 2003)

Legend:
[1] = biological target: T1, Broad substrate specificity ATP-binding cassette transporter ABCG2 (Homo sapiens, UniProt Q9UNQ0); test: TP_TRANSPORTER: uptake in membrane vesicle from BCRP-expressing Lactococcus lactis cells; format: functional, cell membranes, NZ9000
T1 sequence (Q9UNQ0 whole entry): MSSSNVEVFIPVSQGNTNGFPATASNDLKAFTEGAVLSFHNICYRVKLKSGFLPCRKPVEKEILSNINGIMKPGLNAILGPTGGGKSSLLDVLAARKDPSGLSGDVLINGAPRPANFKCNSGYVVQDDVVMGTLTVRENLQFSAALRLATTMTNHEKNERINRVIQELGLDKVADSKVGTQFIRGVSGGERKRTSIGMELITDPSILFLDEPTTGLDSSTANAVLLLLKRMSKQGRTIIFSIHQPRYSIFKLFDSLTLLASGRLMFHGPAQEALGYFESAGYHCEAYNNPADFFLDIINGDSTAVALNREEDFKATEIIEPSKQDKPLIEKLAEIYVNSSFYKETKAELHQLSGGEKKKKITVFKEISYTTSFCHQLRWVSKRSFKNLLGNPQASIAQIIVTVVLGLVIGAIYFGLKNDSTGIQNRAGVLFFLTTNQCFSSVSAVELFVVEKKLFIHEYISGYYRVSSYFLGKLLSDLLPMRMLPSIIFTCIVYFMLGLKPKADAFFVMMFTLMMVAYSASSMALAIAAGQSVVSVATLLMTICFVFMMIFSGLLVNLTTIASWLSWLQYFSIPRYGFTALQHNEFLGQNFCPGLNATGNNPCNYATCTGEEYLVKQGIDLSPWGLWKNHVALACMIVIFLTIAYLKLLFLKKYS

[2] = biological target: T1, Broad substrate specificity ATP-binding cassette transporter ABCG2; test: TP_TRANSPORTER: uptake in BCRP-expressing Lactococcus lactis cells; format: functional, NZ9000
[3] = biological target: T1, Broad substrate specificity ATP-binding cassette transporter ABCG2; test: TP_TRANSPORTER: ATPase assay in membrane vesicle from BCRP-expressing Lactococcus lactis cells; format: functional, cell membranes, NZ9000
[4] = biological target: T1, Broad substrate specificity ATP-binding cassette transporter ABCG2; test: TP_TRANSPORTER: growth inhibition in BCRP-expressing Lactococcus lactis cells; format: functional, NZ9000

Structure (SMILES)	Activity [2]	Activity [3]	other results
CCOc1ccc(-c2nc3cc(-c4nc5cc(N6CCN(C)CC6)ccc5[nH]4)ccc3[nH]2)cc1	substrate []		Activity [1]: substrate []
CC(C)CCC[C@@H](C)[C@H]1CC[C@H]2[C@@H]3CC=C4C[C@@H](O)CC[C@]4(C)[C@H]3CC[C@]12C [CHOLESTEROL]		substrate []	
COc1cccc2c1C(=O)c1c(O)c3c(c(O)c1C2=O)C[C@@](O)(C(C)=O)C[C@@H]3O[C@H]1C[C@H](N)[C@H](O)[C@H](C)O1 [DAUNORUBICIN]		substrate []	
C[C@]12CC[C@@H]3c4ccc(O)cc4CC[C@H]3[C@@H]1CC[C@@H]2O [ESTRADIOL]	substrate []	substrate []	
CC[n+]1c(-c2ccccc2)c2cc(N)ccc2c2ccc(N)cc21.[Br-] [HOMIDIUM BROMIDE]	substrate []		Activity [4]: substrate []
CC(=O)[C@H]1CC[C@H]2[C@@H]3CCC4=CC(=O)CC[C@]4(C)[C@H]3CC[C@]12C [PROGESTERONE]		substrate []	
COC(=O)c1ccccc1-c1c2ccc(=N)cc-2oc2cc(N)ccc12.Cl [RHODAMINE123]	substrate []		
CC/C(=C(\c1ccccc1)c1ccc(OCCN(C)C)cc1)c1ccccc1 [TAMOXIFEN]		substrate []	
C[C@]12CC[C@H]3[C@@H](CCC4=CC(=O)CC[C@@]43C)[C@@H]1CC[C@@H]2O [TESTOSTERONE]		substrate []	
